Results: ChEMBL document CHEMBL4715697, “Synthesis and biological activity of benzamide DNA minor groove binders” (2016)

Legend:
Assay type in all cases: functional
OVCAR-4 [1] = experiment: Growth inhibition of human OVCAR-4 cells assessed as cell growth at 100 uM incubated for 48 hrs by sulforhodamine B assay relative to control; details: read-out: Activity
Malme-3M = experiment: Growth inhibition of human Malme-3M cells assessed as cell growth at 1 uM incubated for 48 hrs by sulforhodamine B assay relative to control; details: read-out: Activity
HOP-62 [2] = experiment: Growth inhibition of human HOP-62 cells assessed as cell growth at 0.01 uM incubated for 48 hrs by sulforhodamine B assay relative to control; details: read-out: Activity
SW-620 = experiment: Growth inhibition of human SW-620 cells assessed as cell growth at 0.1 uM incubated for 48 hrs by sulforhodamine B assay relative to control; details: read-out: Activity
NCI-H226 [3] = experiment: Growth inhibition of human NCI-H226 cells incubated for 48 hrs by sulforhodamine B assay
SF-268 [4] = experiment: Growth inhibition of human SF-268 cells incubated for 48 hrs by sulforhodamine B assay
RPMI-8226 = experiment: Growth inhibition of human RPMI-8226 cells incubated for 48 hrs by sulforhodamine B assay
HT-29 = experiment: Growth inhibition of human HT-29 cells assessed as cell growth at 1 uM incubated for 48 hrs by sulforhodamine B assay relative to control; details: read-out: Activity
NCI-H322M [5] = experiment: Growth inhibition of human NCI-H322M cells incubated for 48 hrs by sulforhodamine B assay
A549 = experiment: Growth inhibition of human A549/ATCC cells assessed as cell growth at 0.1 uM incubated for 48 hrs by sulforhodamine B assay relative to control; details: read-out: Activity
COLO 205 = experiment: Growth inhibition of human COLO 205 cells incubated for 48 hrs by sulforhodamine B assay
MDA-MB-435 = experiment: Growth inhibition of human MDA-MB-435 cells assessed as cell growth at 0.1 uM incubated for 48 hrs by sulforhodamine B assay relative to control; details: read-out: Activity
NCI-H23 = experiment: Growth inhibition of human NCI-H23 cells assessed as cell growth at 0.01 uM incubated for 48 hrs by sulforhodamine B assay relative to control; details: read-out: Activity
SF-268 [6] = experiment: Growth inhibition of human SF-268 cells assessed as cell growth at 1 uM incubated for 48 hrs by sulforhodamine B assay relative to control; details: read-out: Activity
HCT-15 = experiment: Growth inhibition of human HCT-15 cells assessed as cell growth at 100 uM incubated for 48 hrs by sulforhodamine B assay relative to control; details: read-out: Activity
NCI-H322M [7] = experiment: Growth inhibition of human NCI-H322M cells assessed as cell growth at 1 uM incubated for 48 hrs by sulforhodamine B assay relative to control; details: read-out: Activity
MDA-MB-468 = experiment: Growth inhibition of human MDA-MB-468 cells assessed as cell growth at 100 uM incubated for 48 hrs by sulforhodamine B assay relative to control; details: read-out: Activity
NCI/ADR-RES = experiment: Growth inhibition of human NCI/ADR-RES cells assessed as cell growth at 1 uM incubated for 48 hrs by sulforhodamine B assay relative to control; details: read-out: Activity
MDA-MB-231 = experiment: Growth inhibition of human MDA-MB-231 cells assessed as cell growth at 0.1 uM incubated for 48 hrs by sulforhodamine B assay relative to control; details: read-out: Activity
NCI-H460 = experiment: Growth inhibition of human NCI-H460 cells incubated for 48 hrs by sulforhodamine B assay
Hs-578T = experiment: Growth inhibition of human Hs-578T cells assessed as cell growth at 0.1 uM incubated for 48 hrs by sulforhodamine B assay relative to control; details: read-out: Activity
SNB-19 = experiment: Growth inhibition of human SNB-19 cells assessed as cell growth at 0.01 uM incubated for 48 hrs by sulforhodamine B assay relative to control; details: read-out: Activity
U-251 = experiment: Growth inhibition of human U-251 cells assessed as cell growth at 100 uM incubated for 48 hrs by sulforhodamine B assay relative to control; details: read-out: Activity
SK-OV-3 = experiment: Growth inhibition of human SK-OV-3 cells assessed as cell growth at 0.1 uM incubated for 48 hrs by sulforhodamine B assay relative to control; details: read-out: Activity
NCI-H226 [8] = experiment: Growth inhibition of human NCI-H226 cells assessed as cell growth at 0.01 uM incubated for 48 hrs by sulforhodamine B assay relative to control; details: read-out: Activity
HOP-62 [9] = experiment: Growth inhibition of human HOP-62 cells assessed as cell growth at 100 uM incubated for 48 hrs by sulforhodamine B assay relative to control; details: read-out: Activity
NCI-H522 = experiment: Growth inhibition of human NCI-H522 cells assessed as cell growth at 0.01 uM incubated for 48 hrs by sulforhodamine B assay relative to control; details: read-out: Activity
SK-MEL-2 = experiment: Growth inhibition of human SK-MEL-2 cells incubated for 48 hrs by sulforhodamine B assay
NCI-H226 [10] = experiment: Growth inhibition of human NCI-H226 cells assessed as cell growth at 0.1 uM incubated for 48 hrs by sulforhodamine B assay relative to control; details: read-out: Activity
OVCAR-4 [11] = experiment: Growth inhibition of human OVCAR-4 cells assessed as cell growth at 0.1 uM incubated for 48 hrs by sulforhodamine B assay relative to control; details: read-out: Activity
HL-60(TB) = experiment: Growth inhibition of human HL-60(TB) cells assessed as cell growth at 1 uM incubated for 48 hrs by sulforhodamine B assay relative to control; details: read-out: Activity
EKVX = experiment: Growth inhibition of human EKVX cells assessed as cell growth at 0.1 uM incubated for 48 hrs by sulforhodamine B assay relative to control; details: read-out: Activity
DU-145 = experiment: Growth inhibition of human DU-145 cells incubated for 48 hrs by sulforhodamine B assay
[12] = read-out: LC50 (the source's name)
[13] = read-out: pLC50 (the source's name) (converted)

CC(=O)Nc1cc(CO[Si](C)(C)C(C)(C)C)cc(NC(=O)c2ccc(C(=O)Nc3cccc(NC(=O)CCCN(C)C)c3)cc2)c1
> 75.9 µM: GI50 (NCI-H226 [3]; read-out: pGI50 (converted)) | CC50 (NCI-H226 [3]; [13]) | TGI (NCI-H226 [3]; read-out: pTGI) | GI50 (SF-268 [4]; read-out: pGI50 (converted)) | LC50 (SF-268 [4]; read-out: pLC50 (converted)) | TGI (SF-268 [4]; read-out: pTGI) | GI50 (RPMI-8226; read-out: pGI50 (converted)) | CC50 (RPMI-8226; [13]) | TGI (RPMI-8226; read-out: pTGI) | GI50 (NCI-H322M [5]; read-out: pGI50 (converted)) | CC50 (NCI-H322M [5]; [13]) | TGI (NCI-H322M [5]; read-out: pTGI) | GI50 (COLO 205; read-out: pGI50 (converted)) | LC50 (COLO 205; read-out: pLC50 (converted)) | TGI (COLO 205; read-out: pTGI) | GI50 (NCI-H460; read-out: pGI50 (converted)) | CC50 (NCI-H460; [13]) | TGI (NCI-H460; read-out: pTGI) | GI50 (SK-MEL-2; read-out: pGI50 (converted)) | CC50 (SK-MEL-2; [13]) | TGI (SK-MEL-2; read-out: pTGI) | GI50 (DU-145; read-out: pGI50 (converted)) | CC50 (DU-145; [13]) | TGI (DU-145; read-out: pTGI)
99%: growth at 0.1 µM (A549)
96%: growth at 0.01 µM (SNB-19) | growth at 0.01 µM (NCI-H226 [8]) | growth at 0.1 µM (OVCAR-4 [11])
89%: growth at 100 µM (U-251) | growth at 0.01 µM (NCI-H522)
86%: growth at 1 µM (HL-60(TB))
113%: growth at 1 µM (HT-29)
103%: growth at 100 µM (MDA-MB-468)
101%: growth at 0.01 µM (NCI-H23) | growth at 1 µM (SF-268 [6])
121%: growth at 0.1 µM (Hs-578T)
95%: growth at 0.1 µM (MDA-MB-231)
78%: growth at 100 µM (OVCAR-4 [1])
97%: growth at 0.01 µM (HOP-62 [2]) | growth at 1 µM (NCI-H322M [7]) | growth at 1 µM (NCI/ADR-RES)
87%: growth at 100 µM (HOP-62 [9])
100%: growth at 0.1 µM (SW-620)
82%: growth at 100 µM (HCT-15)
> 75 µM: GI50 (NCI-H226 [3]; read-out: GI50) | CC50 (NCI-H226 [3]; [12]) | TGI (NCI-H226 [3]; read-out: TGI) | GI50 (SF-268 [4]; read-out: GI50) | LC50 (SF-268 [4]; read-out: LC50) | TGI (SF-268 [4]; read-out: TGI) | GI50 (RPMI-8226; read-out: GI50) | CC50 (RPMI-8226; [12]) | TGI (RPMI-8226; read-out: TGI) | GI50 (NCI-H322M [5]; read-out: GI50) | CC50 (NCI-H322M [5]; [12]) | TGI (NCI-H322M [5]; read-out: TGI) | GI50 (COLO 205; read-out: GI50) | LC50 (COLO 205; read-out: LC50) | TGI (COLO 205; read-out: TGI) | GI50 (NCI-H460; read-out: GI50) | CC50 (NCI-H460; [12]) | TGI (NCI-H460; read-out: TGI) | GI50 (SK-MEL-2; read-out: GI50) | CC50 (SK-MEL-2; [12]) | TGI (SK-MEL-2; read-out: TGI) | GI50 (DU-145; read-out: GI50) | CC50 (DU-145; [12]) | TGI (DU-145; read-out: TGI)
93%: growth at 0.1 µM (NCI-H226 [10])
94%: growth at 1 µM (Malme-3M)
98%: growth at 0.1 µM (MDA-MB-435) | growth at 0.1 µM (SK-OV-3) | growth at 0.1 µM (EKVX)

CC(=O)Nc1cc(CCl)cc(NC(=O)c2ccc(C(=O)Nc3cccc(NC(=O)CCCN(C)C)c3)cc2)c1
92%: growth at 0.1 µM (NCI-H226 [10])
94%: growth at 0.1 µM (OVCAR-4 [11])
87%: growth at 0.1 µM (EKVX)
95%: growth at 1 µM (NCI/ADR-RES) | growth at 100 µM (U-251) | growth at 0.01 µM (NCI-H226 [8]) | growth at 100 µM (HOP-62 [9])
99%: growth at 0.1 µM (A549) | growth at 1 µM (HL-60(TB))
97%: growth at 1 µM (Malme-3M)
116%: growth at 0.1 µM (Hs-578T)
96%: growth at 0.01 µM (NCI-H23) | growth at 0.01 µM (NCI-H522)
> 100 µM: GI50 (NCI-H226 [3]; read-out: GI50) | CC50 (NCI-H226 [3]; [12]) | TGI (NCI-H226 [3]; read-out: TGI) | GI50 (NCI-H226 [3]; read-out: pGI50 (converted)) | CC50 (NCI-H226 [3]; [13]) | TGI (NCI-H226 [3]; read-out: pTGI) | GI50 (SF-268 [4]; read-out: GI50) | LC50 (SF-268 [4]; read-out: LC50) | TGI (SF-268 [4]; read-out: TGI) | GI50 (SF-268 [4]; read-out: pGI50 (converted)) | LC50 (SF-268 [4]; read-out: pLC50 (converted)) | TGI (SF-268 [4]; read-out: pTGI) | GI50 (RPMI-8226; read-out: GI50) | CC50 (RPMI-8226; [12]) | TGI (RPMI-8226; read-out: TGI) | GI50 (RPMI-8226; read-out: pGI50 (converted)) | CC50 (RPMI-8226; [13]) | TGI (RPMI-8226; read-out: pTGI) | GI50 (NCI-H322M [5]; read-out: GI50) | CC50 (NCI-H322M [5]; [12]) | TGI (NCI-H322M [5]; read-out: TGI) | GI50 (NCI-H322M [5]; read-out: pGI50 (converted)) | CC50 (NCI-H322M [5]; [13]) | TGI (NCI-H322M [5]; read-out: pTGI) | GI50 (COLO 205; read-out: GI50) | LC50 (COLO 205; read-out: LC50) | TGI (COLO 205; read-out: TGI) | GI50 (COLO 205; read-out: pGI50 (converted)) | LC50 (COLO 205; read-out: pLC50 (converted)) | TGI (COLO 205; read-out: pTGI) | GI50 (NCI-H460; read-out: GI50) | CC50 (NCI-H460; [12]) | TGI (NCI-H460; read-out: TGI) | GI50 (NCI-H460; read-out: pGI50 (converted)) | CC50 (NCI-H460; [13]) | TGI (NCI-H460; read-out: pTGI) | GI50 (SK-MEL-2; read-out: GI50) | CC50 (SK-MEL-2; [12]) | TGI (SK-MEL-2; read-out: TGI) | GI50 (SK-MEL-2; read-out: pGI50 (converted)) | CC50 (SK-MEL-2; [13]) | TGI (SK-MEL-2; read-out: pTGI) | GI50 (DU-145; read-out: GI50) | CC50 (DU-145; [12]) | TGI (DU-145; read-out: TGI) | GI50 (DU-145; read-out: pGI50 (converted)) | CC50 (DU-145; [13]) | TGI (DU-145; read-out: pTGI)
101%: growth at 0.01 µM (HOP-62 [2]) | growth at 1 µM (HT-29) | growth at 1 µM (SF-268 [6])
107%: growth at 0.1 µM (SW-620)
100%: growth at 1 µM (NCI-H322M [7])
84%: growth at 100 µM (HCT-15)
51%: growth at 100 µM (MDA-MB-468)
103%: growth at 0.1 µM (SK-OV-3)
89%: growth at 100 µM (OVCAR-4 [1])
106%: growth at 0.1 µM (MDA-MB-231) | growth at 0.01 µM (SNB-19)
93%: growth at 0.1 µM (MDA-MB-435)
